{"source": "patent US12121596B2", "about": "“Near infrared fluorescent dyes, formulations and related methods” (Washington University, priority 2019, dated 2024)", "key": {"[1]": {"molecular_target": "T1, ANXA2 over ANXA1 and ANXA3 (Homo sapiens, UniProt P07355)", "T1 construct": "GST; purchased MyBioSource, Inc", "T1 sequence (P07355 whole entry)": "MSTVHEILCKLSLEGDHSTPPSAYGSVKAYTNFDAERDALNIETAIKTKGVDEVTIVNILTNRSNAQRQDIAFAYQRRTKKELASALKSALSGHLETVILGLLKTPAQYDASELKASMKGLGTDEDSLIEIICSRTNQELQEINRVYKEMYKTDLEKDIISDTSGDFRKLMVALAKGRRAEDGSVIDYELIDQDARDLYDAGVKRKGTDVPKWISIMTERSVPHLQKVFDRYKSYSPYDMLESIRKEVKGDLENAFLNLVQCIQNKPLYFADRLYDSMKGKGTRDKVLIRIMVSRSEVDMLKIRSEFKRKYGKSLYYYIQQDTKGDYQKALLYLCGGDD", "test": "Annexin selectivity, fluorescent gel binding", "conditions": "ANXA2 vs ANXA1 and ANXA3", "procedure": "For fluorescent gel binding experiments, 1 μg recombinant annexin A2 protein was incubated with LS301 or cypate (10 μM) at 37° C. for the periods indicated. Samples were subjected to SDS-PAGE on precast gels (Bio-Rad, Hercules, CA), and gels were imaged for near-infrared fluorescence (800 nm) using a Pearl Small Animal Imager (LI-COR Biosciences, Lincoln, NE, USA). For competitive binding experiments, Annexin A2-GST, annexin A1, or annexin A3 (1.0 μg protein per sample) was pre-incubated with or without 2.5 mM of LS637 (non-fluorescent LS301 analog; blocking peptide) in binding buffer (25 mM Tris-HCl pH 7.4, 150 mM NaCl, 1 mM MgCl2, 1 mM CaCl2) for 1 hour at 37° C. Ten μM. LS301 was then added to each sample. After incubation for 2 hours at 37° C., proteins were subjected to SDS-PAGE and imaged fluorescently. For some experiments, LS301 was incubated with 4T1 tumor cells before SDS-PAGE."}, "ANXA3": {"molecular_target": "T2, ANXA3 (Homo sapiens, UniProt P12429)", "T2 construct": "purchased MyBioSource, Inc", "T2 sequence (P12429 1-323)": "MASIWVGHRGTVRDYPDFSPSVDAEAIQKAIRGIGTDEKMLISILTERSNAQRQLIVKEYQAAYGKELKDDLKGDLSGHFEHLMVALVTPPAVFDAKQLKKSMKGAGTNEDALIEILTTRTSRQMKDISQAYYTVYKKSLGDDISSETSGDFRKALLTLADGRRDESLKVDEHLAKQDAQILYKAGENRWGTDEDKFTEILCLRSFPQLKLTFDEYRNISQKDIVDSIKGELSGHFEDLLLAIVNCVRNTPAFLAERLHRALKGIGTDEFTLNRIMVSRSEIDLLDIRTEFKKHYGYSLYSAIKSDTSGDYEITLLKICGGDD", "test": "Microscale thermophoresis (MST), ANXA3 binding", "conditions": "read-out: apparent Kd, ANXA3", "from_the_text": "(§1) Recombinant proteins and antibodies. Recombinant annexin A2, annexin A2 with glutathione-S-transferase (GST) tag, annexin A1, and annexin A3 proteins were purchased from MyBioSource, Inc. (San Diego, CA, USA). Purified ANXA2 protein and purified pANXA2 protein were gifts from Dr. Gabriel Bimme (Beth Israel Deaconess Medical Center, Boston, MA). Rabbit monoclonal anti-annexin A2 antibody (D11G2, #8235), Rabbit monoclonal anti-Rab5 (C8B1, #3547), and rabbit monoclonal anti-Rab7 (D95F2, #936 7) primary antibodies were purchased from Cell Signaling Technology, Inc. (Danvers, MA, USA). Mouse monoclonal anti-β-actin 2A3 (sc-517582), mouse monoclonal anti-pANXA2 antibody (11.Tyr 24) (sc-135752), rabbit polyclonal anti-NOS2 (C-19, sc-649), rabbit polyclonal anti-ARG1 (H-52, sc-20150) antibodies, and protein A/G agarose were purchased from Santa Cruz Biotechnology, Inc. (Dallas, TX, USA). […]\n(§2) MST was performed using the Monolith NT.115 (Nanotemper Technologies, Munich, Germany). […] Fluorescence was assessed in MST-2 buffer (50 mM Tris-HCl, pH 7.4; 150 mM NaCl; 10 mM MgCl2). […] The apparent Kd values were calculated from fragment concentration-dependent changes in normalized fluorescence (Fraction Bound) of LS301 after 5 seconds of thermophoresis based on mass action law using the MO Affinity Analysis v2.3 software."}, "[2]": {"test_system": "lysates of insulin-stimulated, pANXA2-expressing 4T1 cells", "test": "Binding to lysates of insulin-stimulated 4T1 cells", "design": "species or system murine", "conditions": "read-out: apparent Kd, 4T1 cell lysates", "procedure": "(§3) MST was performed using the Monolith NT.115 (Nanotemper Technologies, Munich, Germany). The appropriate agent(s) and LS301 stock samples were denatured in MST-1 buffer (50 mM Tris-HCl, pH 7.4; 150 mM NaCl; 10 mM MgCl2; 2% DMSO; 0.1% Tween-20; 4% SDS, 4 mM dithiothreitol (DTT)) at 97° C. for 10 min. Fluorescence was assessed in MST-2 buffer (50 mM Tris-HCl, pH 7.4; 150 mM NaCl; 10 mM MgCl2). The protein was prepared in MST-2 buffer, and 20 μL serial dilutions were made with protein concentration ranging from 3.05 pM to 50 nM (pANXA2) or 3.81 pM to 62.5 nM (ANXA2). All samples were loaded into NT.115 standard capillaries. The analysis was performed at 37° C., 30% LED power, 60% MST power, and a constant LS301 concentration of 20 nM. The apparent Kd values were calculated from fragment concentration-dependent changes in normalized fluorescence (Fraction Bound) of LS301 after 5 seconds of thermophoresis based on mass action law using the MO Affinity Analysis v2.3 software.\nFor Western blot analysis of insulin/PP2-induced change in cellular pANXA2 levels, 4T1 cells were treated with insulin or PP2 as above, lysed, and subjected to SDS-PAGE analysis. […]"}, "[3]": {"test": "Microscale thermophoresis (MST), calcium binding", "conditions": "read-out: apparent dissociation constant (Kd), calcium", "from_the_text": "Microscale thermophoresis (MST) studies biomolecular interactions in an aqueous environment without immobilization. MST exploits the directed movement of molecules along a microscopic temperature gradient. The movement rate and direction of movement depend on the species' size, charge, and solvation shell under study. Changes in this environment can change the thermophoretic movement of the species. MST can distinguish very small changes that occur, for example, when a small fluorescent molecule binds to the surface of a protein.\nas §3, with “The analysis was performed at 37° C., 30% LED power, 60% MST power, and a constant LS301 concentration of 20 nM.” left out"}, "pANXA2": {"molecular_target": "pANXA2 (Homo sapiens, UniProt P07355)", "sequence (P07355 2-339 limits assumed)": "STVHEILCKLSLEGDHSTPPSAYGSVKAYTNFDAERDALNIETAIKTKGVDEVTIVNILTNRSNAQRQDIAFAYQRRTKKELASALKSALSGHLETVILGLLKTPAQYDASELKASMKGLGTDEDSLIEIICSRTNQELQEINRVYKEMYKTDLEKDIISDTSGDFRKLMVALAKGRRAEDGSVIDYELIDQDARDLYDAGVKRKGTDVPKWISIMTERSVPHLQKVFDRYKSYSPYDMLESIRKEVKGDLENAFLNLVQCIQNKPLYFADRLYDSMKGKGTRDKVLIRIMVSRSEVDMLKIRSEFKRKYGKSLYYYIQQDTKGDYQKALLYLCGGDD", "test": "Microscale thermophoresis (MST), pANXA2 binding", "conditions": "read-out: apparent Kd, pANXA2", "from_the_text": "as §1, §2"}, "tumor": {"test_system": "tumor", "test": "NIR contrast evaluation of DMSO and ethanol-based formulations", "assay_type": "in vivo", "from_the_text": "No difference in histology between the various solvents was seen."}}, "note": "Positions of bridges follow the written chain, without caps; N, C: chain ends. Non-standard residues stand in square brackets, D forms with d. Residues, ends and D or L forms follow the SMILES beside them. *: point of attachment. X1 = CC1(C)C(/C=C/C=C/C=C/C=C2/N(CCC(=O)*)c3ccc4ccccc4c3C2(C)C)=[N+](CCC(=O)[O-])c2ccc3ccccc3c21"}
{"smiles": "CC1(C)C(/C=C/C=C/C=C/C=C2/N(CCC(=O)N[C@@H]3CSSC[C@@H](C(=O)N[C@@H](CCCCN)C(=O)O)NC(=O)[C@@H]4CCCN4C(=O)[C@H](CO)NC(=O)[C@H](CC(=O)O)NC(=O)[C@H](CCCNC(=N)N)NC(=O)CNC3=O)c3ccc4ccccc4c3C2(C)C)=[N+](CCC(=O)[O-])c2ccc3ccccc3c21", "note": "[LS301, cypate-cyclic (DCys-Gly-Arg-Asp-Ser-Pro-Cys)-Lys-OH] (X1-[dC]GRDSPCK-OH; disulfide 1-7)", "values": [{"measurement": "annexin binding preference", "setting": "[1]", "value": "preferentially targets ANXA2 over ANXA1 and ANXA3"}, {"measurement": "Kd", "setting": "ANXA3", "value": "6.13 ± 0.28", "unit": "nM"}, {"measurement": "Kd", "setting": "[2]", "value": "0.017 ± 0.004", "unit": "nM"}, {"measurement": "Kd", "setting": "[3]", "value": "5.67 ± 2.4", "unit": "nM"}, {"measurement": "Kd", "setting": "pANXA2", "value": "0.075 ± 0.002", "unit": "nM"}, {"measurement": "tumor uptake compared to renal or hepatic clearance", "setting": "tumor; 20% PEG400 solutions", "value": "increased tumor uptake"}, {"measurement": "NIR contrast", "setting": "tumor; in 20% PEG400", "value": "significantly increased contrast"}, {"measurement": "clearance mechanism", "setting": "tumor; in vivo", "value": "cleared via renal and hepatic mechanisms"}]}
